PubChem BioAssay (NCI)
“And” between values parts separate entries of the source, which are not always exact repeats. Equal values may be shown once.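 Method: 48-hour compound exposure of cells in 96-well plates, five concentrations, linear interpolation of endpoints. At the GI50, growth is halved. TGI marks complete inhibition of growth.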

Columns and labels:
Experiment in all cases: NCI anticancer screen, dose series, 48 h
TK-10 renal = system: TK-10 renal
HOP-92 NSCLC = system: HOP-92 NSCLC
MDA-MB-231 breast = system: MDA-MB-231 breast
UACC-257 melanoma = system: UACC-257 melanoma
SF-268 CNS = system: SF-268 CNS
OVCAR-5 ovarian = system: OVCAR-5 ovarian
EKVX NSCLC = system: EKVX NSCLC
HL-60(TB) leukemia = system: HL-60(TB) leukemia
HS 578T breast = system: HS 578T breast
U251 CNS = system: U251 CNS

SMILES	TGI (TK-10 renal)	TGI (HOP-92 NSCLC)	TGI (MDA-MB-231 breast)	TGI (UACC-257 melanoma)	TGI (SF-268 CNS)	TGI (OVCAR-5 ovarian)	TGI (EKVX NSCLC)	TGI (HL-60(TB) leukemia)	TGI (HS 578T breast)	TGI (U251 CNS)	GI50 (TK-10 renal)	GI50 (UACC-257 melanoma)	GI50 (OVCAR-5 ovarian)	GI50 (HL-60(TB) leukemia)	GI50 (HOP-92 NSCLC)	GI50 (SF-268 CNS)	GI50 (U251 CNS)	GI50 (MDA-MB-231 breast)	GI50 (EKVX NSCLC)	GI50 (HS 578T breast)
C=CCCCN(C(=O)c1ccccc1)c1ccc(C(=O)OC)o1	> 100 µM	> 100 µM	> 100 µM	> 100 µM	> 100 µM	> 100 µM	> 100 µM	> 100 µM	> 100 µM	–	–	–	–	–	–	–	–	–	–	–
Cc1ccc(N=Nc2c(O)ccc3ccccc23)c(C)c1	> 100 µM	> 100 µM	> 100 µM	> 100 µM	> 100 µM	> 100 µM	–	–	> 100 µM	> 100 µM	–	–	–	–	–	–	–	–	–	–
Cc1oc(N)c(S(=O)(=O)/C(C#N)=C/c2ccccc2[N+](=O)[O-])c1C	> 100 µM	> 100 µM	82.6 µM	> 100 µM	> 100 µM	39.2 µM	> 100 µM	–	–	36.3 µM	–	–	–	–	–	–	–	–	–	–
CN(C)Cc1cc(/C=C/C(=O)c2ccc(Br)cc2)cc(CN(C)C)c1O	25.7 µM	–	40 µM	33.7 µM	33.4 µM	> 100 µM	55.2 µM	50.6 µM	–	–	–	–	–	–	–	–	–	–	–	–
COc1ccc(-c2csc3c2[N+]2(C)C=CC=C2C3N2CCCC2)cc1 (stereo not drawn)	> 100 µM	75.9 µM	> 100 µM	93.5 µM	> 100 µM	> 100 µM	> 100 µM	> 100 µM	98.6 µM	23.3 µM	–	–	–	–	–	–	–	–	–	–
C=CCN1C(=O)C[C@H](Cc2ccccc2)NC(=O)C[C@H](Cc2ccccc2)N(CC=C)C(=O)C[C@H](Cc2ccccc2)NC(=O)C[C@@H]1Cc1ccccc1	> 100 µM	80.4 µM	> 100 µM	> 100 µM	> 100 µM	> 100 µM	9.25 µM	9.37 µM	> 100 µM	> 100 µM	–	–	–	–	–	–	–	–	–	–
CC(C)(C)N=C1C(=O)C2(C)CCC1C2(C)C (stereo not drawn)	> 100 µM	–	> 100 µM	> 100 µM	> 100 µM	> 100 µM	> 100 µM	–	–	> 100 µM	–	–	–	–	–	–	–	–	–	–
C[C@]12CC[C@H]3[C@@H](CC=C4C[C@@H](O)CC[C@@]43C)[C@@H]1C/C(=C\c1ccc([N+](=O)[O-])cc1)[C@@H]2O	55.2 µM	91.7 µM	22.6 µM	59 µM	> 100 µM	78.4 µM	26.5 µM	80.9 µM	> 100 µM	–	–	–	–	–	–	–	–	–	–	–
Cc1c2cc[n+](C)cc2c(C)c2c1[nH]c1ccc(OCC(F)(F)F)cc12	> 100 µM	8.98 µM and > 28.5 µM	–	20 µM and > 100 µM	0.638 µM	> 100 µM	82.9 µM	> 70.4 µM	–	1.49 µM	13.5 µM and > 100 µM	4.02 µM and 14.8 µM	12 µM and > 100 µM	5.13 µM and 16.4 µM	–	–	–	–	–	–
CCCCn1c(-c2ccccc2)cs/c1=N\NC(=O)Cn1c(C)nc2ccccc21	> 100 µM	–	–	> 100 µM	–	> 100 µM	> 100 µM	56.2 µM	–	> 100 µM	–	–	–	–	–	–	–	–	–	–
COc1ccc(-c2c(/C=N/OCC(=O)O)c3sc4ccccc4n3c2/C=N/OCC(=O)O)cc1	> 50 µM	> 50 µM	> 50 µM	> 50 µM	> 50 µM	> 50 µM	> 50 µM	–	> 50 µM	> 50 µM	–	–	–	–	–	–	–	–	–	–
CSCSCC(CO)NC(=O)/C=C\c1c(C)[nH]c(=O)[nH]c1=O (stereo not drawn)	–	10.1 µM	–	208 µM	112 µM	277 µM	153 µM	46.6 µM	–	201 µM	–	–	–	–	–	–	–	–	–	–
COc1ccc(-c2nc(-c3cnccn3)n(C/C=C/c3ccccc3)n2)cc1	–	37 µM	> 100 µM	> 100 µM	–	> 100 µM	–	> 100 µM	–	> 100 µM	–	–	–	–	–	–	–	–	–	–
N/C(=N\N=C/c1c(O)cc(O)cc1O)NO	–	> 100 µM	–	> 100 µM	> 100 µM	> 100 µM	> 94.5 µM	> 76.9 µM	–	> 100 µM	–	–	–	–	–	–	–	–	–	–
c1ccc(C2N=C(c3ccccn3)C(c3ccccn3)=NC2c2ccccc2)cc1 (stereo not drawn)	> 100 µM	> 100 µM	–	> 100 µM	> 100 µM	> 100 µM	> 100 µM	> 100 µM	–	> 100 µM	–	–	–	–	–	–	–	–	–	–
COC(=O)CCCc1nc2ccccc2nc1N=Nc1ccccc1	> 100 µM	> 100 µM	> 100 µM	> 100 µM	> 100 µM	> 100 µM	> 100 µM	20.1 µM	–	> 100 µM	–	–	–	–	–	–	–	–	–	–
CC(C)=CC(=O)OC1C2C(C)=CC(=O)C(O)C2(C)C2C3(O)OCC24C(CC(=O)OC14)C(C)C3O (stereo not drawn)	0.0917 µM and 0.81 µM	0.0465 µM and 0.0367 µM	0.0596 µM and 0.0264 µM	0.0436 µM and 0.0432 µM	0.049 µM and 0.014 µM and 0.091 µM	–	–	–	0.00523 µM	0.0192 µM and 0.0314 µM	0.0511 µM	0.02 µM	0.113 µM	0.02 µM	0.0207 µM	0.0088 µM	0.02 µM	–	–	–
Oc1c(NCn2nc(CCCCCCCCc3nn(CNc4ccc5ccccc5c4O)c(=S)o3)oc2=S)ccc2ccccc12	> 100 µM	> 100 µM	> 100 µM	> 100 µM	> 100 µM	> 100 µM	> 100 µM	–	–	> 100 µM	–	–	–	–	–	–	–	–	–	–
O=C(NCc1cn(Cc2cccc(Oc3ccccc3)c2)nn1)c1cccnc1NCc1ccc(Cl)cc1	49.1 µM	–	6.14 µM	> 100 µM	> 100 µM	> 100 µM	> 100 µM	8.07 µM	> 100 µM	8.7 µM	3.7 µM	3.83 µM	5.62 µM	3.39 µM	–	4.82 µM	2.66 µM	2.29 µM	3.65 µM	2.72 µM
Cc1cccc(NC(=S)Nc2cccc(Cl)c2)n1	> 100 µM	–	> 100 µM	> 100 µM	> 100 µM	> 100 µM	> 100 µM	> 100 µM	> 100 µM	> 100 µM	–	–	–	–	–	–	–	–	–	–
O=c1[nH]c(=S)[nH]c2c1CCCN2	> 100 µM	> 100 µM	–	> 100 µM	> 100 µM	> 100 µM	> 100 µM	> 100 µM	–	> 100 µM	–	–	–	–	–	–	–	–	–	–
COc1cc(/C=C2\N=C(c3ccccc3)N(c3cc4cc(Sc5ccccc5)ccc4[nH]3)C2=O)ccc1O	–	> 50 µM	–	> 50 µM	–	> 50 µM	> 50 µM	4.19 µM	–	–	–	–	–	–	–	–	–	–	–	–
CC(=O)N1CCOC12N=NC(C)(C)O2 (stereo not drawn)	> 100 µM	> 100 µM	> 100 µM	> 100 µM	> 100 µM	> 100 µM	> 100 µM	–	> 100 µM	> 100 µM	–	–	–	–	–	–	–	–	–	–
